Results from patent US10576082B2, “ErbB2 regulates autophagic flux to modulate the proteostasis of APP-CTFs in alzheimer's disease” (Academia Sinica, priority 2016, dated 2020).

Tests used:
[1] = tested on: HEK293 cells overexpressing C99-YFP; experiment: Western blotting of HEK293 cells overexpressing C99-YFP; format: cell-based; conditions: 1 μM, 37° C., 24 h
Procedure: (A) Adherent CG and NG cells (20,000 cells/well) were treated with 1 μM of the indicated ErbB1/2-selective tyrosine kinase inhibitors in the presence of 1 μg/ml tetracycline at 37° C. for 24 h. The luminescence signals emitted by cells treated with vehicle alone (Ctrl, 0.1% DMSO) were referred to as 100% relative luminescence signals. The luminescence signals generated by γ-secretase-mediated proteolysis of C99 (CG) or NΔE (NG) were determined using the Steady-Glo luciferase assay reagent. (B) HEK293 overexpressing C99-YFP cells were treated with 1 μM of the indicated ErbB1/2 tyrosine kinase inhibitors at 37° C. for 24 h. Clarified lysates were analyzed by Western blotting and quantified by Image J. (C) HEK293 overexpressing ErbB1 ErbB2, CFP-tagged C99, and YFP-tagged NΔE cells were infected with gene-targeting shRNA-encoding lentivirus (shErbB1 or shErbB2) at 37° C. for 48 h. Clarified lysates containing equivalent amounts of proteins were examined by Western blotting and quantified by Image J. (D) CG and NG cells were infected with gene-targeting shRNA-encoding lentivirus at 37° C. for 48 h. Following induction with 1 μg/ml tetracycline for 24 h. Cells infected with empty lentivirus (w/o) or LacZ-targeting shRNA lentivirus (shCtrl_a and shCtrl_b) were included as controls. Data are shown as the mean±SD from three independent experiments, and were analyzed by Student's t-tests. * p<0.05.
Clarified lysates containing equivalent amounts of proteins were analyzed by Western blotting. (B, C) HEK293 overexpressing CFP-LC3 cells were infected with lentivirus encoding shRNA targeting LacZ ErbB2, or ErbB2 plus ATG5 for 48 h. The autophagy induction was analyzed by fluorescence confocal microscopy. The number of CFP-LC3 puncta per cell was quantified. The levels of LC3-I, LC3-II, and GAPDH were analyzed by Western blotting. (D, E) HEK293 cells overexpressing ErbB1, ErbB2, CFP-tagged C99, and YFP-tagged NΔE were infected with lentivirus encoding shRNA targeting LacZ (Ctrl), ErbB1, or ErbB2 for 48 h. Infection mixtures were replaced with 2 ml of fresh culture medium, and infected cells were then incubated at 37° C. for an additional 24 h. The levels of LC3-1, LC3-II, and p62 were analyzed by Western blotting and quantified by NIH Image J. Conditional media were harvested and processed for determination of secreted Aβ40 using a colourimetric Aβ40-specific ELISA kit. (F, G) HEK293 cells overexpressing C99-YFP were treated with vehicle (DMSO) or 1 μM CL-387,785 at 37° C. for 24 h and analyzed by Western blotting. Conditional media were harvested for determination of secreted Aβ40. The quantitative data are shown as mean±SD from three independent experiments, and were analyzed by Student's t-tests. * p<0.05.
Preparation of cell extracts. To prepare total cell-free extracts, we harvested cells in 6-well microplates with ice-cold PBS containing 20 mM EDTA, and then pelleted the cells by centrifugation. PBS-washed cells were resuspended in a lysis buffer containing 1% Triton X-100, 50 mM Tris-HCl pH 7.5, 150 mM NaCl, 25 mM β-glycerophosphate, 1 mM Na3VO4, and protease inhibitor cocktail set V (Merck). Following the removal of cell debris by centrifugation, clarified lysates were processed for immunoprecipitation, Western blotting, or quantification of BCA protein content.
Western blotting analysis. Protein concentration was measured with the BCA Protein Assay Kit (Pierce). […]

[2] = tested on: zebrafish embryos expressing GFP-tagged C99; experiment: C99-expressing zebrafish model of AD, Western blotting of embryo lysates; format: in vivo; conditions: treated from 48 hpf to 72 hpf at 28° C.
Procedure: (A) IMR32 cells overexpressing C99-YFP were grown with 2 ml fresh culture medium in 6-well plates, and treated with 1 μM CL-387,785 or DAPT at 37° C. for 24 h. The cell extracts were analyzed by Western blotting. (B) Conditional media were harvested and processed for determination of secreted Aβ40 using a colorimetric Aβ40-specific ELISA kit. (C) C99-YFP-expressing IMR32 cells (160,000 cells/well) were seeded onto 6-well plates and cultured at 37° C. for 24 h, and infected with ErbB1- or ErbB2-targeting shRNA lentivirus for an additional 48 h. Infection mixtures were replaced with 2 ml fresh culture medium, and infected cells were then incubated at 37° C. for an additional 24 h. The cell extracts were analyzed by Western blotting with anti-GFP antibody. (D) The conditioned media were harvested and processed for determination of secreted Aβ40. Data are the mean±SD from three independent experiments, and were analyzed by Student's t-tests. * p<0.05. (E) Schematic presentation of the DNA construct encoding recombinant C99-GFP-P2A-GFP. CMV, human cytomegalovirus promoter; CI, chimeric intron; P2A, porcine teschovirus 2A peptide. […]
Overexpression of APP-C99 zebrafish. […] Clarified lysates containing equal amounts of protein were analyzed by Western blotting.

[3] = tested on: APPswe/PS1ΔE9 double transgenic mice; experiment: Brain Aβ40 and Aβ42 ELISA in treated APPswe/PS1ΔE9 mice; format: in vivo, mouse; conditions: 5 mg/kg daily oral, 20 days, normalized to total protein

`CC#CC(=O)Nc1ccc2ncnc(Nc3cccc(Br)c3)c2c1` [CL-387,785, N-[4-[(3-bromophenyl)amino]-6-quinazolinyl]-2-butynamide] was tested, and the LC3-II/LC3-I ratio [1] was “concurrent increase”, the “level of AICD” value [1] was “concomitantly decreased” and the “level of C99” value [1] was “concomitantly decreased”. For the same compound, the “level of ErbB2” value [1] was “concomitantly decreased”, the “level of p62” value [1] was “significant reduction” and the “level of AICD in embryos” value [2] was “concomitant clearance”. The “level of C99 in embryos” value [2] was “concomitant clearance”, the “reduction in the level of Aβ40 in brain” value [3] was “approximately 40%” and the “reduction in the level of Aβ42 in brain” value [3] was “approximately 40%”.
